What all share (experiment): growth of human tumour cells (NCI), 48 h
The test system of assay [1] is SW-620 colon.
Assay [2] deals with SNB-19 CNS.
For assay [3], the system named is SNB-75 CNS.
The test system of assay [4] is RXF 393 renal.
For assay [5], the system named is NCI-H23 lung.
Assay [6] relates to OVCAR-5 ovarian.
For assay [7], the system named is SF-539 CNS.
Assay [8] concerns MDA-MB-231 breast.
Assay [9] relates to OVCAR-4 ovarian.
Assay [10] concerns M14 melanoma.

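Each compound was tested at five concentrations against cells in 96-well plates for 48 hours. At the GI50, growth is halved. TGI marks complete inhibition of growth.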

From PubChem BioAssay (NCI) come the findings set out here.

On to `COc1ccc(-c2cc(-c3cccn3C)c(C#N)c(N)n2)cc1OC`, for which the GI50 was above 100 µM in assay [1]; above 100 µM in assay [2]; 21.1 µM in assay [3]; above 100 µM in assay [4]; above 100 µM in assay [5]; above 100 µM in assay [6]. In addition, the values for the GI50 in assay [7], in assay [8] and in assay [9] were 82.4 µM, 38.3 µM and 40.7 µM, respectively. Besides, the TGI was above 100 µM in assay [1]; above 100 µM in assay [2]; 70.9 µM in assay [3]; above 100 µM in assay [4]; above 100 µM in [5]; above 100 µM in assay [6]. Besides, the TGI in assay [7], in [8] and in [9] was above 100 µM throughout.
In the case of `O=C(CCCN1CC=C(n2c(=O)[nH]c3ccccc32)CC1)c1ccc(F)cc1`, the GI50 in [1] is 53.5 µM; in assay [4], 19 µM; in [5], 37.6 µM; in [6], 94.1 µM; in [10], 23 µM; in assay [8], 62.8 µM. Also, the GI50 in assay [9] is 30 µM. The TGI in [1] is above 100 µM; in [4] it was above 100 µM; in assay [5] it was above 100 µM; in assay [6], above 100 µM; in assay [10], 65.5 µM; in [8], above 100 µM. Further, the TGI in assay [9] is above 100 µM.
`COc1ccc(C2C(C#N)=C(N)OC3=C2COc2ccc(F)cc23)cc1OC` (stereo not given): the GI50 in assay [1] was 44.4 µM; in assay [2] it was 73.8 µM; in assay [4], 69.3 µM; in [5], 13.1 µM; in assay [6], 23.7 µM; in assay [10] it was 40.1 µM. In addition, the values for the GI50 in [7], in [8] and in [9] were 21.5 µM, 14.3 µM and 24.9 µM, respectively. Besides, the TGI was above 100 µM in assay [1]; above 100 µM in assay [2]; above 100 µM in [4]; 36.7 µM in [5]; 80.9 µM in assay [6]; above 100 µM in assay [10]. In addition, the TGI in assay [7] is 75.4 µM; in assay [8] it was 58.8 µM; in [9], above 100 µM.
`N#CC1Nc2ccccc2[C@@H](O)C1O` (stereo not given in full): the TGI in assay [1], in [3], in assay [4], in assay [5], in [6] and in assay [10] was above 100 µM in each case. Also, the TGI in assay [7], in assay [8] and in assay [9] was above 100 µM each time.
With `O=C(O)c1cccc(OCCO)c1`, the TGI in assay [1], in assay [2], in assay [4], in assay [5], in [6] and in [10] was above 100 µM each time. For the same molecule, the TGI in assay [7], in assay [8] and in [9] was above 100 µM each time.
For `Nc1c(C(=O)N/N=C/c2ccc(-c3ccc(Cl)cc3)o2)cnn1-c1ccnc2c(C(F)(F)F)cccc12`, the GI50 in assay [1] was above 100 µM; in [2] it was above 100 µM; in assay [3] it was 65.4 µM; in assay [5] it was above 100 µM; in assay [6], above 100 µM; in assay [10], above 100 µM. The results for the GI50 in assay [7], in [8] and in assay [9] were above 100 µM, above 100 µM and 72.5 µM, respectively. Also, the TGI in [1], in assay [2], in assay [3], in assay [5], in [6] and in assay [10] was above 100 µM in each case. Besides, the TGI in assay [7], in assay [8] and in [9] was above 100 µM throughout.
With `CCN1C(=O)N(CC)C2C1NC(=S)N2/N=C/C=C/c1cccs1` (stereo not given), the GI50 was 0.355 µM in [1]; 0.508 µM in [2]; 0.182 µM in assay [4]; 0.658 µM in assay [5]; 0.544 µM in assay [6]; 0.241 µM in [10]. The GI50 in assay [7] was 0.226 µM; in assay [8], 0.648 µM; in [9] it was 1.32 µM. Moreover, the TGI in [1] is above 100 µM; in [2] it was above 100 µM; in [4], above 100 µM; in [5] it was above 100 µM; in assay [6], above 100 µM; in assay [10] it was 17.6 µM. Moreover, the TGI is 0.666 µM in assay [7], above 100 µM in [8] and above 100 µM in assay [9].
Consider `O/N=C\c1c(O)ccc2ccccc12`, for which the TGI in assay [1], in assay [2], in assay [3], in assay [4], in assay [5] and in assay [6] was above 100 µM in each case. Besides, the TGI in assay [10], in assay [7] and in [8] was above 100 µM each time.
With `CCCCCc1c(C)[nH]c(/C=C2\N=C(c3ccc[nH]3)C=C2CC)c1C`, the GI50 in [1] was below 0.01 µM; in [2], 0.0433 µM; in [5], below 0.0124 µM; in [6], 0.0179 µM; in [10], below 0.01 µM; in [7] it was 0.0153 µM. The GI50 in [8] was below 0.01 µM; in [9], below 0.0176 µM. Moreover, the TGI is 0.17 µM in [1]; 1.46 µM in assay [2]; 0.135 µM in assay [5]; 0.785 µM in assay [6]; 0.0237 µM in assay [10]; 0.172 µM in [7]. Moreover, the TGI in assay [8] is 0.0186 µM; in [9], 0.727 µM.
On to `COC(COC(=O)N1CCN(C=O)CC1)C1=C(N2CC2)C(=O)C(C)=C(N2CC2)C1=O` (stereo not given), for which the TGI in assay [1] came to 1.59 µM; in [2], 13.4 µM; in [4], 0.815 µM; in assay [5], 0.926 µM; in assay [6], 8.64 µM; in [10], 1.34 µM. Moreover, the TGI in [7] is 0.342 µM; in assay [8] it was 8.16 µM; in [9], 2.13 µM.
Regarding `CCN(CC)CCNCC(=O)Oc1ccc(/C=C/C(=O)CC(=O)/C=C/c2ccc(OC(=O)CNCCN(CC)CC)c(OC)c2)cc1OC`, the GI50 in [1] was 3.02 µM; in [2], 4.94 µM; in [3], 6.31 µM; in [6], 3.83 µM; in assay [10], 2.82 µM; in assay [7], 2.59 µM. In addition, the GI50 in [8] was 4.94 µM; in assay [9] it was 8.67 µM. In addition, the TGI in [1] was found to be 9.93 µM; in assay [2] it was 20.2 µM; in [3], 28.1 µM; in assay [6], 15.1 µM; in [10] it was 11 µM; in assay [7], 6.74 µM. Also, the TGI in assay [8] is 29.3 µM; in assay [9], above 100 µM.
For the molecule `NC1CCCC[C@H]1N.N[C@@H]1CCCC[C@@H]1N.O=C(P(=O)([O-])[O-])P(=O)([O-])[O-].[Pt+4].[Pt+4]`, the GI50 in assay [1] was 38.8 µM; in assay [2] it was above 100 µM; in assay [3] it was above 100 µM; in assay [4], above 100 µM; in assay [5], above 100 µM; in assay [6] it was above 100 µM. The GI50 in assay [10], in assay [7] and in assay [9] was above 100 µM each time. For the same molecule, the TGI in assay [1], in [2], in assay [3], in assay [4], in assay [5] and in [6] was above 100 µM throughout. Moreover, the TGI in assay [10], in [7] and in [9] was above 100 µM in each case.
As for `CC(=O)OCC1OC([S-])C(OC(C)=O)C(OC(C)=O)C1OC(C)=O.CC[PH+](CC)CC.CC[PH+](CC)CC.[Au].[Au]` (stereo not given), the GI50 in assay [1] was 0.199 µM; in assay [2], 0.197 µM; in assay [3], 0.249 µM; in assay [4], 0.0434 µM; in assay [5] it was 0.245 µM; in assay [6], 1.59 µM. For the same molecule, the values for the GI50 in assay [10], in [7] and in assay [9] were 0.14 µM, 0.18 µM and 0.506 µM, respectively. For the same molecule, the TGI came to 0.493 µM in assay [1]; 0.552 µM in assay [2]; 1.16 µM in assay [3]; 0.197 µM in assay [4]; 1.07 µM in assay [5]; 2.96 µM in assay [6]. Also, the results for the TGI in [10], in assay [7] and in [9] were 0.322 µM, 0.624 µM and 1.88 µM, respectively.
For `Nc1nc(Nc2ccccc2)c2ncn(Cc3cc4c(cc3Br)OCO4)c2n1`, the GI50 in assay [1] was 0.0471 µM; in assay [2], 0.0686 µM; in assay [3], 0.0623 µM; in assay [4], 0.0602 µM; in assay [5] it was 0.0187 µM; in assay [6] it was 0.282 µM. The GI50 in assay [7] is 0.0394 µM; in assay [8], 0.0497 µM; in [9], 0.326 µM. Further, the TGI in [1] is above 100 µM; in assay [2], 22.3 µM; in assay [3], 25.3 µM; in assay [4], 8.65 µM; in [5] it was above 100 µM; in assay [6], above 80.3 µM. For the same molecule, the values for the TGI in assay [7], in assay [8] and in assay [9] were 0.51 µM, above 51.9 µM and 55.1 µM, respectively.
As for `O=C(Nc1cccc(Cl)c1Cl)c1cccc(NC2=C(Cl)C(=O)N(Cc3ccccc3)C2=O)c1`, the GI50 was 20.1 µM in [1]; above 100 µM in assay [2]; above 100 µM in assay [3]; 41.4 µM in [5]; 89.5 µM in assay [6]; 35.8 µM in assay [10]. In addition, the GI50 in assay [7] was 9.87 µM; in [8], 32.2 µM; in assay [9] it was 57.7 µM. Further, the TGI in assay [1], in assay [2], in assay [3], in [5], in assay [6] and in assay [10] was above 100 µM throughout. For the same molecule, the TGI is 40.6 µM in [7], above 100 µM in [8] and above 100 µM in [9].
As to `Cc1cn2c(/C=C3/C(=O)Nc4ccccc43)c(-c3ccc(Cl)cc3)nc2s1`, the GI50 was 15.1 µM in [1]; 7.01 µM in [2]; 3.72 µM in assay [4]; 8.39 µM in assay [10]; 5.8 µM in [7]; 2.34 µM in assay [8]. The TGI turned out to be 38.2 µM in assay [1]; 13.5 µM in assay [2]; 12.9 µM in [4]; 15.2 µM in assay [10]; 11.9 µM in assay [7]; 9.45 µM in assay [8].
Consider `COc1cc(/C=C2\C(=O)Nc3ccc(F)cc32)cc(OC)c1OC`, for which the GI50 in assay [1] is 63.7 µM; in [2] it was 38.4 µM; in assay [3], 9.18 µM; in [5], 24 µM; in [6] it was above 100 µM; in assay [10], 63.5 µM. In addition, the GI50 is above 100 µM in assay [7], 3.16 µM in [8] and 60 µM in [9]. The TGI in assay [1] is above 100 µM; in assay [2], above 100 µM; in [3] it was 79.3 µM; in assay [5], above 100 µM; in assay [6], above 100 µM; in [10] it was above 100 µM. The figures for the TGI in assay [7], in assay [8] and in [9] were above 100 µM, 36.3 µM and above 100 µM, respectively.
Consider `CCOC(=O)C1=C(C)N(N)C(=S)NC1c1ccc(C)cc1` (stereo not given), for which the GI50 in assay [2] is 73 µM; in [4], 6.44 µM; in assay [5] it was 63.9 µM; in [6] it was 15.7 µM; in assay [10], 27.5 µM; in assay [8], 1.2 µM. Besides, the GI50 in assay [9] is 66 µM. Also, the TGI in assay [2], in [4], in assay [5], in assay [6], in assay [10] and in assay [8] was above 100 µM throughout. In assay [9], the TGI was above 100 µM.
